{"source": "patent US20020137154A1", "about": "“Methods for improving cell growth and alcohol production during fermentation” (priority 2000, published 2002)", "test_system": "recombinant Escherichia coli KO11", "test": "Batch fermentation of E. coli KO11 in Luria broth and xylose with nutrient additives: ethanol production and cell growth", "assay_type": "cell-based", "details": "LB+xylose", "method": "Two types of media were tested: 1% CSL and Luria broth (LB). Each contained 97 g of either xylose or glucose per liter. Luria Broth consists of, per liter: 10 g Difco® Tryptone, 5 g Difco® Yeast Extract and 5 g NaCl. The 1% CSL medium consists of Corn Steep Liquor (1% w/v) plus mineral salts (mineral salts per liter: 1 g of KH2PO4. 0.5 g of K2HPO4, 3.1 g of (NH4)2SO4, 0.4 g of MgCl2·6H2), and 20 mg FeCl3·6H2O).\nLuria Broth was prepared by autoclaving a 2× nutrient stock containing, per liter: 20 g Difco® Tryptone, 10 g Difo® Yeast Extract, and 10 g NaCl. Sugars (xylose or glucose) were autoclaved separately. A 1% CSL medium was prepared as follows: Commercial Corn Steep Liquor (CSL; 50% dry weight/50% water) was diluted with tap water to make a 20X stock containing 100 g dry weight of Corn Steep Liquor/L and was adjusted to pH 7.2 with NaOH (50%). After sterilization by autoclaving, the 20X CSL stock was clarified by centrifugation at 5000×g for 10 minutes. Magnesium was added as a 100× stock solution (40 g/L MgCl2·6H2O). Iron was added as a 1000× stock solution made by dissolving 20 g FeCl3·6H2O in 175 mL of HCl and adjusting to 1 L with sterile water. Nitrogen, sulfur and phosphorus were added using a 20× stock solution containing the following (per liter): 20 g of KH2PO4, 10 g of K2HPO4 and 62 g of (NH4)2SO4. Stock solutions containing minerals were sterilized separately by autoclaving. Final media was prepared by adding 750 mL of water to 1 L bottle containing 100 g of xylose or glucose.\nInocula were grown in same media used for fermentation and were prepared as follows. Three colonies from a fresh plate were used to inoculate seed cultures: 250-mL flask containing 100 mL medium. These cultures were grown with agitation (120 rpm) for 12-16 hours at 35° C. to a final OD550nm of approximately 2.0-2.5. Cells were harvested by centrifugation at 5000×g for 5 minutes, and resuspended in fresh media to an OD550nm of 0.1. The resulting suspension was distributed into 500-mL beakers containing 345 ml each of fermentation medium. Acetaldehyde was added as indicated. Batch fermentations (35° C., 100 rpm) were maintained at pH 6.5 by the automatic addition of 2N KOH. Cell mass, ethanol, and base addition (2N KOH) were recorded during 96 hours of incubation.\nEquivalent amounts of distilled water were added instead of the acetaldehyde in control experiments.\nAdditives (e.g., as listed in Table 1) were dissolved in 5 mL di-H2O. Solutions with pH lower than 5 were neutralized to pH 6.5 with 2N KOH. Nutritional supplements were then filter-sterilized (0.45 μm filter disk) directly into the fermentation vessel containing the culture. The final concentration of all additives in the culture medium was 2 g/L unless otherwise indicated.\nCell mass was estimated by measuring OD550nm using Baush & Lomb® Spectronic 70 spectrophotometer. […] Ethanol was measured by gas chromatography using a Varian® 3400 CX gas chromatograph with 1-propanol as an internal standard.\nTables 1, 3, and 5 show time to completion of fermentation, ethanol production, and volumetric productivity of the fermentation for all concentrations of the compound and the control. Maximum ethanol production is shown in grams/liter (g/L). The ethanol yield is shown in grams of ethanol/grams of added sugar. Maximum volumetric productivity is shown in grams ethanol/(liter)(hour). The average productivity is calculated form the start of fermentation to the completion of fermentation is grams ethanol/(liter)hour).\nTables 2, 4, and 6 show the initial growth of the cells (OD taken after the first 24 hours of fermentation) and the maximum cell density (the time which culture reaches the maximum OD value).\nAcetaldehyde was added to the fermentation medium at five different concentrations and time points. […] Where two additions are indicated, the first volume was added at the start of fermentation and the second was added after 8 hours of fermentation.", "data": [{"smiles": "CC=O", "note": "[Acetaldehyde, acetaldehyde]", "values": [{"measurement": "Ethanol Production Maximum", "setting": "0.25 g/L at start", "value": 43.80, "unit": "g/L"}, {"measurement": "Ethanol Production Maximum % Control", "setting": "0.25 g/L at start", "value": 101.68, "unit": "%"}, {"measurement": "Ethanol yield", "setting": "0.25 g/L at start", "value": "0.451 grams of ethanol/grams of added sugar"}, {"measurement": "Initial Growth (OD at 24 h) % Control", "setting": "0.25 g/L at start", "value": 110.79, "unit": "%"}, {"measurement": "Initial Growth (OD at 24 h) OD", "setting": "0.25 g/L at start", "value": 11.07, "unit": "OD"}, {"measurement": "Maximum Cell Density % Control", "setting": "0.25 g/L at start", "value": 100.20, "unit": "%"}, {"measurement": "Maximum Cell Density OD", "setting": "0.25 g/L at start", "value": 11.07, "unit": "OD"}, {"measurement": "Maximum Cell Density Time", "setting": "0.25 g/L at start", "value": 24, "unit": "h"}, {"measurement": "Time to completion", "setting": "0.25 g/L at start", "value": 48, "unit": "h"}, {"measurement": "Volumetric Productivity Average", "setting": "0.25 g/L at start", "value": "0.913 grams ethanol/(liter)(hour)"}, {"measurement": "Volumetric Productivity Average % Control", "setting": "0.25 g/L at start", "value": 101.68, "unit": "%"}, {"measurement": "Volumetric Productivity Maximum", "setting": "0.25 g/L at start", "value": "1.352 grams ethanol/(liter)(hour)"}, {"measurement": "Volumetric Productivity Maximum % Control", "setting": "0.25 g/L at start", "value": 117.36, "unit": "%"}, {"measurement": "Ethanol Production Maximum", "setting": "0.5 + 0.25 g/L (start, 8 h)", "value": 41.40, "unit": "g/L"}, {"measurement": "Ethanol Production Maximum % Control", "setting": "0.5 + 0.25 g/L (start, 8 h)", "value": 96.11, "unit": "%"}, {"measurement": "Ethanol yield", "setting": "0.5 + 0.25 g/L (start, 8 h)", "value": "0.426 grams of ethanol/grams of added sugar"}, {"measurement": "Initial Growth (OD at 24 h) % Control", "setting": "0.5 + 0.25 g/L (start, 8 h)", "value": 99.02, "unit": "%"}, {"measurement": "Initial Growth (OD at 24 h) OD", "setting": "0.5 + 0.25 g/L (start, 8 h)", "value": 9.89, "unit": "OD"}, {"measurement": "Maximum Cell Density % Control", "setting": "0.5 + 0.25 g/L (start, 8 h)", "value": 97.92, "unit": "%"}, {"measurement": "Maximum Cell Density OD", "setting": "0.5 + 0.25 g/L (start, 8 h)", "value": 10.81, "unit": "OD"}, {"measurement": "Maximum Cell Density Time", "setting": "0.5 + 0.25 g/L (start, 8 h)", "value": 48, "unit": "h"}, {"measurement": "Time to completion", "setting": "0.5 + 0.25 g/L (start, 8 h)", "value": 48, "unit": "h"}, {"measurement": "Volumetric Productivity Average", "setting": "0.5 + 0.25 g/L (start, 8 h)", "value": "0.863 grams ethanol/(liter)(hour)"}, {"measurement": "Volumetric Productivity Average % Control", "setting": "0.5 + 0.25 g/L (start, 8 h)", "value": 96.11, "unit": "%"}, {"measurement": "Volumetric Productivity Maximum", "setting": "0.5 + 0.25 g/L (start, 8 h)", "value": "0.904 grams ethanol/(liter)(hour)"}, {"measurement": "Volumetric Productivity Maximum % Control", "setting": "0.5 + 0.25 g/L (start, 8 h)", "value": 78.52, "unit": "%"}, {"measurement": "Ethanol Production Maximum", "setting": "0.5 + 0.5 g/L (start, 8 h)", "value": 41.64, "unit": "g/L"}, {"measurement": "Ethanol Production Maximum % Control", "setting": "0.5 + 0.5 g/L (start, 8 h)", "value": 96.65, "unit": "%"}, {"measurement": "Ethanol yield", "setting": "0.5 + 0.5 g/L (start, 8 h)", "value": "0.429 grams of ethanol/grams of added sugar"}, {"measurement": "Initial Growth (OD at 24 h) % Control", "setting": "0.5 + 0.5 g/L (start, 8 h)", "value": 106.98, "unit": "%"}, {"measurement": "Initial Growth (OD at 24 h) OD", "setting": "0.5 + 0.5 g/L (start, 8 h)", "value": 10.68, "unit": "OD"}, {"measurement": "Maximum Cell Density % Control", "setting": "0.5 + 0.5 g/L (start, 8 h)", "value": 106.68, "unit": "%"}, {"measurement": "Maximum Cell Density OD", "setting": "0.5 + 0.5 g/L (start, 8 h)", "value": 11.78, "unit": "OD"}, {"measurement": "Maximum Cell Density Time", "setting": "0.5 + 0.5 g/L (start, 8 h)", "value": 48, "unit": "h"}, {"measurement": "Time to completion", "setting": "0.5 + 0.5 g/L (start, 8 h)", "value": 48, "unit": "h"}, {"measurement": "Volumetric Productivity Average", "setting": "0.5 + 0.5 g/L (start, 8 h)", "value": "0.867 grams ethanol/(liter)(hour)"}, {"measurement": "Volumetric Productivity Average % Control", "setting": "0.5 + 0.5 g/L (start, 8 h)", "value": 96.65, "unit": "%"}, {"measurement": "Volumetric Productivity Maximum", "setting": "0.5 + 0.5 g/L (start, 8 h)", "value": "0.890 grams ethanol/(liter)(hour)"}, {"measurement": "Volumetric Productivity Maximum % Control", "setting": "0.5 + 0.5 g/L (start, 8 h)", "value": 77.26, "unit": "%"}, {"measurement": "Ethanol Production Maximum", "setting": "0.5 g/L at start", "value": 42.59, "unit": "g/L"}, {"measurement": "Ethanol Production Maximum % Control", "setting": "0.5 g/L at start", "value": 98.88, "unit": "%"}, {"measurement": "Ethanol yield", "setting": "0.5 g/L at start", "value": "0.438 grams of ethanol/grams of added sugar"}, {"measurement": "Initial Growth (OD at 24 h) % Control", "setting": "0.5 g/L at start", "value": 108.77, "unit": "%"}, {"measurement": "Initial Growth (OD at 24 h) OD", "setting": "0.5 g/L at start", "value": 10.86, "unit": "OD"}, {"measurement": "Maximum Cell Density % Control", "setting": "0.5 g/L at start", "value": 107.97, "unit": "%"}, {"measurement": "Maximum Cell Density OD", "setting": "0.5 g/L at start", "value": 11.92, "unit": "OD"}, {"measurement": "Maximum Cell Density Time", "setting": "0.5 g/L at start", "value": 48, "unit": "h"}, {"measurement": "Time to completion", "setting": "0.5 g/L at start", "value": 48, "unit": "h"}, {"measurement": "Volumetric Productivity Average", "setting": "0.5 g/L at start", "value": "0.887 grams ethanol/(liter)(hour)"}, {"measurement": "Volumetric Productivity Average % Control", "setting": "0.5 g/L at start", "value": 98.88, "unit": "%"}, {"measurement": "Volumetric Productivity Maximum", "setting": "0.5 g/L at start", "value": "1.027 grams ethanol/(liter)(hour)"}, {"measurement": "Volumetric Productivity Maximum % Control", "setting": "0.5 g/L at start", "value": 89.20, "unit": "%"}, {"measurement": "ethanol production as compared to the control", "setting": "0.5 g/L at the start", "value": "highest amount of ethanol production"}, {"measurement": "initial growth and maximum cell density as compared to the control", "setting": "0.5 g/L at the start", "value": "greatest initial growth and maximum cell density"}, {"measurement": "Ethanol Production Maximum", "setting": "0.75 g/L at start", "value": 42.65, "unit": "g/L"}, {"measurement": "Ethanol Production Maximum % Control", "setting": "0.75 g/L at start", "value": 99.00, "unit": "%"}, {"measurement": "Ethanol yield", "setting": "0.75 g/L at start", "value": "0.439 grams of ethanol/grams of added sugar"}, {"measurement": "Initial Growth (OD at 24 h) % Control", "setting": "0.75 g/L at start", "value": 105.54, "unit": "%"}, {"measurement": "Initial Growth (OD at 24 h) OD", "setting": "0.75 g/L at start", "value": 10.54, "unit": "OD"}, {"measurement": "Maximum Cell Density % Control", "setting": "0.75 g/L at start", "value": 110.94, "unit": "%"}, {"measurement": "Maximum Cell Density OD", "setting": "0.75 g/L at start", "value": 12.25, "unit": "OD"}, {"measurement": "Maximum Cell Density Time", "setting": "0.75 g/L at start", "value": 48, "unit": "h"}, {"measurement": "Time to completion", "setting": "0.75 g/L at start", "value": 48, "unit": "h"}, {"measurement": "Volumetric Productivity Average", "setting": "0.75 g/L at start", "value": "0.889 grams ethanol/(liter)(hour)"}, {"measurement": "Volumetric Productivity Average % Control", "setting": "0.75 g/L at start", "value": 99.00, "unit": "%"}, {"measurement": "Volumetric Productivity Maximum", "setting": "0.75 g/L at start", "value": "0.916 grams ethanol/(liter)(hour)"}, {"measurement": "Volumetric Productivity Maximum % Control", "setting": "0.75 g/L at start", "value": 79.50, "unit": "%"}]}]}
